ChEMBL document CHEMBL1145106, “The role of the side chain in determining relative delta- and kappa-affinity in C5'-substituted analogues of naltrindole” (J Med Chem, 2003)

Legend:
[1] = target: T1, Delta-type opioid receptor (Homo sapiens, UniProt P41143); assay: Ability to displace [3H]DPDPE from human recombinant Opioid receptor delta 1 in CHO cells; format: cell-based
[2] = target: T2, Mu-type opioid receptor (Homo sapiens, UniProt P35372); assay: Ability to displace [3H]DAMGO from human recombinant Opioid receptor mu 1 in CHO cells; format: cell-based
[3] = target: T3, Kappa-type opioid receptor (Homo sapiens, UniProt P41145); format: cell-based, CHO
Description: Ability to displace [3H]U-69593 from human recombinant Opioid receptor kappa 1 in CHO cells

[4] = target: T1, Delta-type opioid receptor; settings: CHO
Description: Ability to displace DPDPE from human recombinant Opioid receptor delta 1 in CHO cells using [35S]- GTP-gamma S Assay

[5] = target: T3, Kappa-type opioid receptor; settings: CHO
Description: Ability to displace U-69,593 from human recombinant Opioid receptor kappa 1 in CHO cells using [35S]- GTP-gamma S Assay

[6] = target: T2, Mu-type opioid receptor; settings: CHO
Description: Ability to displace DAMGO from human recombinant Opioid receptor mu 1 in CHO cells using [35S]- GTP-gamma S Assay

T3 sequence (P41145 whole entry): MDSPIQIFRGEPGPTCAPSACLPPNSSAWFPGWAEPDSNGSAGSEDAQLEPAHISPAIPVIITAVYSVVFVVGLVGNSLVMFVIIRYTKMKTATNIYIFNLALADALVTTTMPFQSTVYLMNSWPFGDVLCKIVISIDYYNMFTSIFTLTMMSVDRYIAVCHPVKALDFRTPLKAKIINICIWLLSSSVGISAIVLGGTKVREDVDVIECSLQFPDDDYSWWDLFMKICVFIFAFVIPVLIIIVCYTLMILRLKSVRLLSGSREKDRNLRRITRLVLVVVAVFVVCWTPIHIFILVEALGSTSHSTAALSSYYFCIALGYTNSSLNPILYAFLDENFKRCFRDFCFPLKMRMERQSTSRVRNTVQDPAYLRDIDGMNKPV
T1 sequence (P41143 whole entry): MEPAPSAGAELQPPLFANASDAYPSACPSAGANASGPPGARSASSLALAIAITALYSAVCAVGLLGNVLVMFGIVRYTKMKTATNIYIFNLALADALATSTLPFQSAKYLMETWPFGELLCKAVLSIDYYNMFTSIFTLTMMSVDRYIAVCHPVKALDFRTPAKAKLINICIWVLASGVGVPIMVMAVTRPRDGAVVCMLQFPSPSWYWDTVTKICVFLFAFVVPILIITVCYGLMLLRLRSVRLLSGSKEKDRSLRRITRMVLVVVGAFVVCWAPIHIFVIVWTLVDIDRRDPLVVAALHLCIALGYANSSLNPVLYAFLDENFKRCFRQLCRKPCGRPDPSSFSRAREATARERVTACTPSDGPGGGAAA
T2 sequence (P35372 whole entry): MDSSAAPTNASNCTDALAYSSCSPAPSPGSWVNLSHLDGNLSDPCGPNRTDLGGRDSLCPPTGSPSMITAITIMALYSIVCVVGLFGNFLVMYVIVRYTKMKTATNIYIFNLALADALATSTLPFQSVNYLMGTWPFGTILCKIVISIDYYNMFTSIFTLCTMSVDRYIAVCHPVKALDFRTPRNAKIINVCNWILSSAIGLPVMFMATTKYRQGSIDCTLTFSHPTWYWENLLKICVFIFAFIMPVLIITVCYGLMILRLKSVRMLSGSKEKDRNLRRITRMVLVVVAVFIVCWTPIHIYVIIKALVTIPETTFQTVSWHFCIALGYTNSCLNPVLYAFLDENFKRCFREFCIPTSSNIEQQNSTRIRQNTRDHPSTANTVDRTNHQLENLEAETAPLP

Structure (SMILES)	Ki [1]	Ki [2]	Ki [3]	Ke [4]	Ke [5]	Ke [6]
CCCC(=N)NCCc1ccc2[nH]c3c(c2c1)C[C@@]1(O)C2Cc4ccc(O)c5c4[C@@]1(CCN2CC1CC1)[C@H]3O5	27.6 nM	40.8 nM	0.25 nM	1.89 nM	0.18 nM	4.21 nM
CCCCCNC(=N)Cc1ccc2[nH]c3c(c2c1)C[C@@]1(O)C2Cc4ccc(O)c5c4[C@@]1(CCN2CC1CC1)[C@H]3O5	17 nM	25.3 nM	1.44 nM			
CCCCCCC/N=C(\N)Cc1ccc2[nH]c3c(c2c1)C[C@@]1(O)C2Cc4ccc(O)c5c4[C@@]1(CCN2CC1CC1)[C@H]3O5				5.83 nM	0.37 nM	2.04 nM
O=C(NCCCCc1ccccc1)c1ccc2[nH]c3c(c2c1)C[C@@]1(O)C2Cc4ccc(O)c5c4[C@@]1(CCN2CC1CC1)[C@H]3O5	59.5 nM	37 nM	6.18 nM	5.15 nM	0.26 nM	2.78 nM
CCC(=N)NCCc1ccc2[nH]c3c(c2c1)C[C@@]1(O)C2Cc4ccc(O)c5c4[C@@]1(CCN2CC1CC1)[C@H]3O5	21.8 nM	26.4 nM	0.28 nM	1.77 nM	0.24 nM	4.7 nM
CCCCCCNC(=O)NCCc1ccc2[nH]c3c(c2c1)C[C@@]1(O)C2Cc4ccc(O)c5c4[C@@]1(CCN2CC1CC1)[C@H]3O5	2.25 nM	13.6 nM	8.13 nM	1.04 nM	1.71 nM	1.79 nM
CC(=N)NCCc1ccc2[nH]c3c(c2c1)C[C@@]1(O)C2Cc4ccc(O)c5c4[C@@]1(CCN2CC1CC1)[C@H]3O5	21.4 nM	22.3 nM	0.29 nM	1.79 nM	0.21 nM	3.78 nM
CCC/N=C(\N)Cc1ccc2[nH]c3c(c2c1)C[C@@]1(O)C2Cc4ccc(O)c5c4[C@@]1(CCN2CC1CC1)[C@H]3O5				4.41 nM	0.05 nM	3.19 nM
CC(C)CC(=N)NCCc1ccc2[nH]c3c(c2c1)C[C@@]1(O)C2Cc4ccc(O)c5c4[C@@]1(CCN2CC1CC1)[C@H]3O5	20.1 nM	47.4 nM	1.39 nM	5.23 nM	0.32 nM	14.7 nM
CCC(=O)NCCc1ccc2[nH]c3c(c2c1)C[C@@]1(O)C2Cc4ccc(O)c5c4[C@@]1(CCN2CC1CC1)[C@H]3O5	3.12 nM	23 nM	1.57 nM	0.38 nM	0.48 nM	4.94 nM
CCCNC(=N)Cc1ccc2[nH]c3c(c2c1)C[C@@]1(O)C2Cc4ccc(O)c5c4[C@@]1(CCN2CC1CC1)[C@H]3O5	5.29 nM	13.5 nM	1.6 nM			
CCCCCCCNC(=O)c1ccc2[nH]c3c(c2c1)C[C@@]1(O)C2Cc4ccc(O)c5c4[C@@]1(CCN2CC1CC1)[C@H]3O5	70.2 nM	61.9 nM	21.9 nM	6.95 nM	0.29 nM	6.86 nM
CCCCC(=O)NCCc1ccc2[nH]c3c(c2c1)C[C@@]1(O)C2Cc4ccc(O)c5c4[C@@]1(CCN2CC1CC1)[C@H]3O5	7.67 nM	31.6 nM	0.68 nM	0.23 nM	0.46 nM	3.37 nM
CCCCC/N=C(\N)Cc1ccc2[nH]c3c(c2c1)C[C@@]1(O)C2Cc4ccc(O)c5c4[C@@]1(CCN2CC1CC1)[C@H]3O5				3.83 nM	0.21 nM	5.61 nM
CCCCCCCNC(=N)Cc1ccc2[nH]c3c(c2c1)C[C@@]1(O)C2Cc4ccc(O)c5c4[C@@]1(CCN2CC1CC1)[C@H]3O5	7.33 nM	56.6 nM	5.61 nM			
CCCCC(=N)NCCc1ccc2[nH]c3c(c2c1)C[C@@]1(O)C2Cc4ccc(O)c5c4[C@@]1(CCN2CC1CC1)[C@H]3O5	38.2 nM	219 nM	0.3 nM	3.31 nM	0.17 nM	5.33 nM
CCCC(=O)NCCc1ccc2[nH]c3c(c2c1)C[C@@]1(O)C2Cc4ccc(O)c5c4[C@@]1(CCN2CC1CC1)[C@H]3O5	3.7 nM	31 nM	0.85 nM	0.3 nM	0.35 nM	3.17 nM
O=C(NCCc1ccccc1)c1ccc2[nH]c3c(c2c1)C[C@@]1(O)C2Cc4ccc(O)c5c4[C@@]1(CCN2CC1CC1)[C@H]3O5	3.53 nM	23.5 nM	2.21 nM	1.21 nM	0.17 nM	2.7 nM
CCNC(=O)NCCc1ccc2[nH]c3c(c2c1)C[C@@]1(O)C2Cc4ccc(O)c5c4[C@@]1(CCN2CC1CC1)[C@H]3O5	2.43 nM	37.6 nM	12.3 nM	0.65 nM	2.47 nM	1.6 nM
CCCCNC(=O)NCCc1ccc2[nH]c3c(c2c1)C[C@@]1(O)C2Cc4ccc(O)c5c4[C@@]1(CCN2CC1CC1)[C@H]3O5	2.6 nM	4.8 nM	6.33 nM	0.53 nM	1.52 nM	1.63 nM
O=C(NCc1ccccc1)c1ccc2[nH]c3c(c2c1)C[C@@]1(O)C2Cc4ccc(O)c5c4[C@@]1(CCN2CC1CC1)[C@H]3O5	11.2 nM	43.9 nM	10.3 nM	2.99 nM	0.73 nM	4.4 nM
COc1ccc(CNC(=O)c2ccc3[nH]c4c(c3c2)C[C@@]2(O)C3Cc5ccc(O)c6c5[C@@]2(CCN3CC2CC2)[C@H]4O6)cc1	7.41 nM	4.64 nM	2.11 nM	6.2 nM	0.28 nM	0.94 nM
